Here are results for two compounds from US20080275058A1, “N-Substituted-1H-Quinoline-2,4-Diones, Preparation Method Thereof, And Pharmaceutical Composition Containing The Same” (KOREA RESEARCH INSTITUTE OF CHEMICAL TECHNOLOGY, priority 2005, published 2008).

SMILES strings stand for the structures. Like-named read-outs stand apart in the source and are kept apart here. Some results are limits rather than exact numbers.

A word on the IC50: it is the point on the concentration scale where inhibition reaches its midpoint. The TD50 is the 50% point of the dose-response relation for the toxic effect studied. One may read the melting point as the temperature of the solid-liquid transition. The inhibition is the relative decrease from the control value, in per cent.

In one data set the target is T1, hD3 (Homo sapiens, UniProt P35462).
T1 construct: purchased BioSignal Packard Inc., Montreal, Canada
In words: Radioligand binding, dopamine D3 ([3H]spiperone). The settings on record: Table 4; [3H]spiperone 1 nM; read-out: Binding affinity, IC50 (nM) D3. In a few lines:
(§1)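 IC50 values come from nonlinear fits of three displacement experiments, each using 7-8 test concentrations in duplicate. D2L and D3 membranes were labelled with 1 nM [3H]spiperone, and D4.2 with 0.06 nM [3H]YM-09151-2. All assays used pH 7.4 Tris buffers, with the D3 buffer adding 120 mM NaCl, KCl and CaCl2.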

A short description of the next data set: Rotarod deficit in mice. The data set is classed as in vivo, mouse. The settings on record: mouse, in vivo, po, unit printed as image, read-out: TD50 (median neurotoxic dose). The essentials:
(§2)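 Compounds suspended in 3% Tween 80 were given p.o. to mice 60 min before testing. Rotarod deficit (%) was the proportion of animals falling within 1 min from a 1 inch knurled rod turning at 6 rpm, scored at 60, 90 and 120 min after dosing.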
On the technique in general: Falling from the rotarod earlier than controls is read as motor impairment.

The next data set deals with mice. The data set is described as follows: Rotarod deficit in mice. The data set is classed as in vivo, mouse. The essentials: as §2
A further data set deals with T2, 5-HT2a (Homo sapiens, UniProt P28223).
T2 construct: purchased Euroscreen/BioSignal Packard Inc
In words: Radioligand binding, 5-HT2a ([3H]Ketanserin). The conditions noted are these: Table 4; [3H]Ketanserin 1 nM; read-out: Binding affinity, IC50 (nM) 5-HT2a.

A further data set addresses 5-HT6 receptors (Homo sapiens, UniProt P50406). The data set is described as follows: Adenylyl cyclase activity (cAMP accumulation) in HeLa cells transfected with human 5-HT6 receptor. The conditions noted are these: for increase in cAMP level inhibited (FIG. 1): 5-HT-induced cAMP increase. The data set is classed as cell-based. Background: Cyclic AMP is a second messenger, typically raised through Gs and lowered through Gi signalling.

The target of a further data set is T3, hD4.2 receptor (Homo sapiens, UniProt P21917, DEL265-296).
T3 construct: purchased BioSignal Packard Inc., Montreal, Canada
T3 sequence (P21917 with tags, fused parts or gaps DEL265-296): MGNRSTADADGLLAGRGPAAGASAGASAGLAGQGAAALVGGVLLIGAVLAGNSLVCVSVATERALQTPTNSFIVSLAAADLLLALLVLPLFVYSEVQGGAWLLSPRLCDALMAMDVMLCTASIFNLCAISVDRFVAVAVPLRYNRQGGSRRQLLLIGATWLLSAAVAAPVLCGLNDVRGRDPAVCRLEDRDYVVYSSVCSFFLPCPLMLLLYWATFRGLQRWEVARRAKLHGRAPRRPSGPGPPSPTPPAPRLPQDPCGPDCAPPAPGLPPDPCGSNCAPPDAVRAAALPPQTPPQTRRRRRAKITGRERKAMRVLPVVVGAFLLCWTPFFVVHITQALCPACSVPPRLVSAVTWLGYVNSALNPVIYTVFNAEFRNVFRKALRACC
The data set is described as follows: Radioligand binding, dopamine D4 ([3H]YM-09151-2). The conditions noted are these: Table 4; [3H]YM-09151-2 0.06 nM; read-out: Binding affinity, IC50 (nM) D4. The essentials:
as §1

A further data set addresses D1 (Homo sapiens, UniProt P21728). The data set is described as follows: Radioligand binding, dopamine D1. The settings on record: Table 4; read-out: Binding affinity, IC50 (nM) D1.
The target of data set [1] is T4, Human serotonin 5-HT6 receptor (Homo sapiens, UniProt P50406).
T4 construct: made in house; host or cells: insect Sf21 cells (baculovirus vector BacPAK8)
In words: [3H]LSD binding assay on cloned 5-HT6 receptor membranes. The settings on record: for binding affinity at 5-HT6 receptor labeled by [3H]LSD, in words: comment on Table 2.

A further data set has as its system rats. The data set is described as follows: Methamphetamine-induced disruption of prepulse inhibition (PPI) in rats. The conditions noted are these: administered 30 min before methamphetamine. The data set is classed as in vivo, rat. The protocol:
To assay antipsychotic properties of the compounds according to the invention, prepulse inhibition (PPI) of acoustic startle in animals was performed. Startle response was measured using SR-LAB startle chamber (San Diego Instruments, San Diego, USA). The animal enclosure was housed in a ventilated and sound-attenuated startle chamber with 60 dB ambient noise level, and consisted of a Plexiglas cylinder 40 mm in diameter on a platform, connected to a piezoelectric accelerometer which detects and transducer motion within the cylinder. Acoustic noise bursts were presented through a loudspeaker mounted 24 ? above the animal. […] Each startle session began with a 5-min acclimatization period in the chamber to 68 dB background noises. The test session consisting of the following four different trial types was carried for all experiments: a 40 ms broadband 120 dB burst (P; pulse alone trial), P preceded 100 ms earlier by a 20 ms noise burst 10 dB above background (pP; prepulse+pulse trial), a 40 ms broadband 78 dB burst (prepulse alone trial), and a no stimulus trial (background). Eight trials of each type were presented in a pseudorandom order (total32 trials) with an average interval of 15 sec. separating each trial. An extra 5 pulse-alone trials were presented at the beginning and end of each test session, but were not used in the calculation of PPI values. PPI was defined as the percent reduction in startle amplitude in the presence of prepulse compared to the amplitude in the absence of the prepulse using the following Math Equation 1. […] Differences were considered significant at P<0.05. Statistical analyses were conducted using SigmaStat software (SigmaStat, Jandel Co., San Rafael, Calif.). The data were expressed as means±SEM.

The target of another data set is T5, hD2L (Homo sapiens, UniProt P14416).
T5 construct: purchased BioSignal Packard Inc., Montreal, Canada
In words: Radioligand binding, dopamine D2 ([3H]spiperone). The conditions noted are these: Table 4; [3H]spiperone 1 nM; read-out: Binding affinity, IC50 (nM) D2. In a few lines:
as §1

Setting [2] is: Table 2, 1.87 nM [3H]LSD, 37 C, 60 min, read-out: IC50 (nM), binding affinity to the 5-HT6 receptor.
Where [3] appears, read: Table 4, read-out: Binding affinity, IC50 (nM) 5-HT6.
The mark [4] stands for this setting: HeLa, read-out: inhibition of 0.3 μM serotonin (5-HT)-induced increase in cAMP levels.

Chain of 5-HT6 receptors (P50406 whole entry): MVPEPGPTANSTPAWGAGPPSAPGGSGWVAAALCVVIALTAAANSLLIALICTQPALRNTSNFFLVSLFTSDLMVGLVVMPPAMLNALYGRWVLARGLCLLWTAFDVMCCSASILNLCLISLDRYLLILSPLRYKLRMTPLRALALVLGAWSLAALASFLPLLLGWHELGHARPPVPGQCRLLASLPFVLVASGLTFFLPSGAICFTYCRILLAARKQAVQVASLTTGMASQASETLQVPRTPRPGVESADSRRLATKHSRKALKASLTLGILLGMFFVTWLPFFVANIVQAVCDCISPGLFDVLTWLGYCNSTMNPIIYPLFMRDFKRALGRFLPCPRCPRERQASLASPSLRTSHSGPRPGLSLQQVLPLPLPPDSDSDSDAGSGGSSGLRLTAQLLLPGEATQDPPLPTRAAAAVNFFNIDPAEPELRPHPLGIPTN
T4 sequence (P50406 whole entry): as above
T5 sequence (P14416 whole entry): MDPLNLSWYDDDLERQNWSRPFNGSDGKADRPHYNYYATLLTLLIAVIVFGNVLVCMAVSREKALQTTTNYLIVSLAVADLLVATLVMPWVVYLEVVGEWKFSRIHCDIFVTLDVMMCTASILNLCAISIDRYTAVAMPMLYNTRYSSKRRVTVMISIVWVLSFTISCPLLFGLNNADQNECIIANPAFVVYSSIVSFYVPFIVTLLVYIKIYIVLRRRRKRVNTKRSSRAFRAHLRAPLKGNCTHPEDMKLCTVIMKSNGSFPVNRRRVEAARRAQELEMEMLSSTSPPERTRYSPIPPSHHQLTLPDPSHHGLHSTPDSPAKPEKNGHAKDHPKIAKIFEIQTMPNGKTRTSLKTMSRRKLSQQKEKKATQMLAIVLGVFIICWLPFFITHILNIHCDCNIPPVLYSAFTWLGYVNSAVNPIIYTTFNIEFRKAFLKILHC
T2 sequence (P28223 whole entry): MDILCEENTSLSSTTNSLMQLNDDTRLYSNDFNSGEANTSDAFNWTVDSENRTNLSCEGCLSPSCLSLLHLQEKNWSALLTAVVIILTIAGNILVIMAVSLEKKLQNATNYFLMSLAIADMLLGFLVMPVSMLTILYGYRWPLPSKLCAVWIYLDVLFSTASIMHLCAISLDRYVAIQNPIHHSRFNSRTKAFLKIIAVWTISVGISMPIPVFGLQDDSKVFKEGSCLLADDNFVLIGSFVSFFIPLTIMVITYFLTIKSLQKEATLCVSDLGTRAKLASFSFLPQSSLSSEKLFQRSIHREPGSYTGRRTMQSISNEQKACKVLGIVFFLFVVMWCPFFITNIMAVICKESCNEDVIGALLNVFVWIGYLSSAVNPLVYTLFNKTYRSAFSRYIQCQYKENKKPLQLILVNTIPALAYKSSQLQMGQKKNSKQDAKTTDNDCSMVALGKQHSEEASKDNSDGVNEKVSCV
Chain of D1 (P21728 whole entry): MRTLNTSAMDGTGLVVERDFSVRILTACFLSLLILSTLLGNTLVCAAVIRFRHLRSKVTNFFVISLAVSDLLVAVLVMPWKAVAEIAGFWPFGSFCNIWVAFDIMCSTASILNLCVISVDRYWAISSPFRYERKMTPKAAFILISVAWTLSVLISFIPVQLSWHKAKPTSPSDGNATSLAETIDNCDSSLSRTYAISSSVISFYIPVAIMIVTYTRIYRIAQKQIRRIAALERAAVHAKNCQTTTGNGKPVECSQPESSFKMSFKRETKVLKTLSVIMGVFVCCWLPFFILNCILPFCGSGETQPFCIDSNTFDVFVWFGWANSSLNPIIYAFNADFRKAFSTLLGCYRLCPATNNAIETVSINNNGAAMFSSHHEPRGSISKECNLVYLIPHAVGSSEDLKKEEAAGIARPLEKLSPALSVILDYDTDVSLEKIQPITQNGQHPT
T1 sequence (P35462 whole entry): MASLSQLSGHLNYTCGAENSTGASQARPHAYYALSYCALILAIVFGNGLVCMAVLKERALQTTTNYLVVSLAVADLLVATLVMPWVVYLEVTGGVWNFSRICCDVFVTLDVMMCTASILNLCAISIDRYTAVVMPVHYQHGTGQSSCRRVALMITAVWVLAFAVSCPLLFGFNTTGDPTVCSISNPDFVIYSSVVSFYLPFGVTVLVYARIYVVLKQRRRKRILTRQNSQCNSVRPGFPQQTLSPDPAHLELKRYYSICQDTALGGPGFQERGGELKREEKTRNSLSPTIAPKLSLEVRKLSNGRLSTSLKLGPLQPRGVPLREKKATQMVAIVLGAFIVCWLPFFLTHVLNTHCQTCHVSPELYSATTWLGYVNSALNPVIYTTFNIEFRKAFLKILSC

For the compound `COc1ccc(C2(C)C(=O)c3c(N4CCNCC4)cc(Cl)cc3N(Cc3ccccc3)C2=O)cc1` (racemic) [Example 13, 1-Benzyl-7-chloro-3-(4-methoxy-phenyl)-3-methyl-5-piperazin-1-yl-1H-quinoline-2,4-dione], the melting point was in the range of 120 to 123 °C. The IC50 at hD3 was 345 nM. Also, the TD50 at 120 min in “Rotarod deficit in mice” is more than 400 mg/kg. For the same compound, the “Rotarod deficit (%)” value in the data set on mice (200 p.o. (dose unit not given)) is given as 0%. Also, in the data set with mice (300 p.o. (dose unit not given)), the “Rotarod deficit (%)” value is on record as 0%. Besides, in the data set with mice (400 p.o. (dose unit not given)), the “Rotarod deficit (%)” value is listed as 0%. The half-inhibitory concentration (IC50) on 5-HT2a stood at 543 nM. The “increase in cAMP level inhibited (FIG. 1)” value at 5-HT6 receptors is listed as “inhibited”. For the same compound, the concentration for half-maximal inhibition (IC50) at hD4.2 receptor is more than 10000 nM. Also, the half-inhibitory concentration (IC50) on D1 came to 3590 nM. In data set [1] (setting [2]), the half-inhibitory concentration (IC50) is 0.9 nM. In addition, the IC50 in data set [1] (setting [3]) worked out at 0.9 nM. In addition, the “binding affinity at 5-HT6 receptor labeled by [3H]LSD, in words” value in [1] was “significant affinities”. Moreover, the “mean startle amplitude compared with methamphetamine group” value in the data set with rats is “no significant differences”. In addition, the 50% inhibitory concentration (IC50) on hD2L is more than 10000 nM.
Turning to `CC1(c2ccc(O)cc2)C(=O)c2c(N3CCNCC3)cc(Cl)cc2N(Cc2ccccc2)C1=O` (racemic) [Example 14, 1-Benzyl-7-chloro-3-(4-hydroxy-phenyl)-3-methyl-5-piperazin-1-yl-1H-quinoline-2,4-dione], the melting point lay within 197 to 200 °C. Also, the 50% inhibitory concentration (IC50) on hD3 worked out at 1500 nM. For the same compound, the TD50 at 120 min in the data set “Rotarod deficit in mice” is more than 400 mg/kg. Besides, the “Rotarod deficit (%)” value in the data set on mice (200 p.o. (dose unit not given)) turned out to be 0%. For the same compound, the “Rotarod deficit (%)” value with mice (300 p.o. (dose unit not given)) was 0%. The “Rotarod deficit (%)” value in the data set on mice (400 p.o. (dose unit not given)) is 0%. Moreover, the half-maximal inhibitory concentration (IC50) at 5-HT2a is 2140 nM. On 5-HT6 receptors, it took 28.7 nM to reach half-maximal inhibition (IC50) and the “increase in cAMP level inhibited (FIG. 1)” value is “inhibited”. In addition, at 5-HT6 receptors (setting [4]), the inhibition at 0.001 µM worked out at 10%, the inhibition at 0.01 µM turned out to be 22%, the inhibition at 0.1 µM amounted to 81% and the inhibition at 1 µM came to 100%. Also, on 5-HT6 receptors (setting [4]), the inhibition at 10 µM worked out at 100%. In addition, on hD4.2 receptor, the IC50 was more than 10000 nM. Further, the half-maximal inhibitory concentration (IC50) at D1 stood at 6820 nM. In addition, in data set [1] (setting [2]), the concentration for half-maximal inhibition (IC50) worked out at 1 nM. Moreover, the IC50 in [1] (setting [3]) is 1 nM. Moreover, the “binding affinity at 5-HT6 receptor labeled by [3H]LSD, in words” value in data set [1] is given as “significant affinities”. Further, in the data set on rats, the “mean startle amplitude compared with methamphetamine group” value was “no significant differences”. The concentration for half-maximal inhibition (IC50) on hD2L was more than 10000 nM.
